According to patent US6900891B2, “Optical sensors for the detection of nitric oxide” (The Regents of the University of Michigan, priority 1999, dated 2005):

System: macrophages derived from BALB/c mice
Test: Extracellular nitric oxide released by macrophages, measured with fiber sensors
Format: cell-based
Conditions: FIG. 19; macrophages treated with LPS and INF-γ and inhibited with 1 mM inhibitor
Procedure: Specifically, said sensors were placed in solution, approximately 0.5 cm from the macrophages.
In one embodiment, the above referenced sensors were used to quantify nitric oxide production by macrophages derived from BALB/c mice. […] Some macrophages were activated by overnight incubation with medium containing 100 U/mL IFN-γ enzyme Corp., Cambridge, Mass.) and 100 ng/mL LPS (List Biological Labs, Inc., Campbell, Calif.). In addition, to activation with IFN-γ and LPS, some cells were also treated with NMMA, (Sigma) to inhibit the production of nitric oxide. Prior to nitric oxide determinations, the macrophages were removed from incubation. For inactivated macrophages, the medium was exchanged for 2 mL Ringer's buffer. […] During measurements, the cells were kept at ambient temperature (25° C.) and 7.5 mg/mL propidium iodide was used to ascertain the degree of cell viability.
In another embodiment, macrophages were derived from the tibia and femur bone marrow of Harlan Sprague-Dawley BALB/c mice were cultured and plated by methods similar to previously published methods. For extracellular measurements with fiber sensors the cells where plated at a density of 2×10^5 on 25 mm coverslips, while those to be used for scrape-loading were plated onto 35 mm petri dishes (Nunc) at a density of 2×10^6. […]

## CNC(=N)NCCC[C@H](N)C(=O)O [Nω-monomethyl-L-arginine, N^ω-monomethyl-L-arginine]
  [NO]: 20 µM
